Measurements from PMC6270917, “Study on the Mechanism of Intestinal Absorption of Epimedins A, B and C in the Caco-2 Cell Model” (Molecules, 2014).
Like-named read-outs stand apart in the source and are kept apart here.

How the values were obtained:
Caco-2 cell monolayers = system: Caco-2 cell monolayers; set-up: method as in PMID 11145220; conditions: cited from earlier work
Caco-2 cells = assay: MTT cell viability assay; format: cell-based, human; conditions: for reduction of cell viability rate of Caco-2 cells: 80 μM (highest concentration), 36 h, vs control; for cytotoxicity to the growth of Caco-2 cells: 10-80 μM
Procedure: Cell viability was measured using the 3-(4, 5-dimethylthiazol-2-yl)-2,5-diphenyltetrazolium bromide (MTT) assay. The Caco-2 cells were seeded in 96-well plates at a density of 2 × 10^3 cells/well in DMEM culture medium and cultured at 37 °C for 24 h. After that, the culture medium was replaced with fresh medium containing epimedins A, B, and C at concentrations ranging from 10 μM to 80 μM. Control groups consist of cells in medium (without epimedins A, B, and C) which are processed identically and incubated simultaneously as treated groups. And then the 96-well plates were incubated for 36 h. Subsequently, 10 μL of 5 mg/mL MTT was added to each well and the plates were incubated for another 4 h. The solutions in each well were then removed followed by dissolving the remained formazan crystals in the cells with 100 μL DMSO. The absorbance was measured at 550 nm using a microplate reader (Thermo Labsystems, Helsinki, Finland). The cell viability of each compound was calculated as the percentage of the absorbance relative to that of negative control.

[1] = Bidirectional transport (A-B and B-A) across Caco-2 cell monolayers; format: in vitro ADME; conditions: human; for efflux ratio at 5 h, 20 µM / efflux ratio at 5 h: Caco-2, pH 7.4; for efflux ratio at 5 h, 20 µM: 20 μM epimedin, no inhibitor, read-out: efflux ratio (PBA/PAB), control without inhibitor; for efflux ratio at 5 h / Papp A→B at 5 h / Papp B→A at 5 h: concentrations of 5–40 μM; for efflux ratio at 5 h: read-out: efflux ratio (PBA/PAB); for Papp A→B at 5 h / Papp B→A at 5 h: Caco-2, HBSS pH 7.4; for Papp A→B at 5 h: A-B direction, read-out: absorptive permeability (PAB); for Papp B→A at 5 h: B-A direction, read-out: secretory permeability (PBA)
Procedure: The Caco-2 TC7 cell line (at passage 30) is generally similar to the wild-type Caco-2 cell line. […] The conditions for Caco-2 cell culture have been described previously. Cells were cultured in a humidified atmosphere of 5% CO2 and 95% air at 37 °C. The culture medium (Dulbecco’s modified Eagle’s medium ) was supplemented with 10% (v/v) fetal bovine serum, 1% nonessential amino acids, 100 U/mL penicillin, and 100 µg/mL streptomycin. When the cell culture reached 80% confluence, it was rinsed with phosphate-buffered saline and split using trypsin. For transport experiments, the cells were seeded on 3 μm porous polycarbonate cell culture Transwell® inserts from Nunc, which has a surface area of 4.2 cm^2 at a density of 100,000 cells/cm^2. The culture media was replaced every other day. The monolayers were ready for experiments from 19 to 21 days after seeding. Transepithelial electrical resistance (TEER) was used to monitor the integrity and tight junction of the Caco-2 cell monolayer.
Epimedin A, epimedin B, and epimedin C were dissolved in dimethyl sulfoxide (DMSO)-ethanol (v/v = 6/4) to prepare the stock solution (8 mM) for each single compound. The above-mentioned solutions were further diluted with HBSS solution (pH = 7.4) to obtain a series of working standard solutions, and the final concentrations of epimedin A, epimedin B, and epimedin C in the transport samples were 5 µM, 10 µM, 20 µM and 40 µM, respectively. Moreover, the final concentrations of the organic solvent of different samples were controlled below 0.5% to ensure the safety to the cells.
(§1) The transport experiments were performed as described previously. Firstly, the cell monolayers were rinsed thrice with 37 °C HBSS (pH 7.4), and the monolayers were incubated with the buffer for 1 h, then the incubation medium was aspirated. Afterwards, transport from the apical side (AP) to basolateral side (BL): 2.9 mL drug solution were added to the AP side (which was regarded as donor side) and 2.5mL HBSS were added to the BL side (which was regarded as receiver side). Transport from the basolateral side to apical side: 2.9 mL drug solution were added to the BL (donor) side and 2.5 mL HBSS were added to the AP (receiver) side. When the transport inhibitors were used, they were loaded only at the donor side. In the test for each solution, four donor samples (400 μL) and four receiver samples (400 μL) were taken at time intervals of 2, 3, 4, and 5 h after incubation, followed by an immediate replacement with fresh donor solution (400 μL) to the donor side or fresh buffer (400 μL) to the receiver side.
(§2) To each transport sample (400 µL), acetonitrile (100 µL) containing 100 µM of testosterone was added as an internal standard and preservation. The resulting mixture was vortexed for 30 sec and then centrifuged at 15,000 rpm for 15min. The supernatant obtained was determined by ultra-performance liquid chromatography (UPLC) within 24 h. At the end of the transport experiment, the TEER value was remeasured to confirm the integrity of the cell monolayer.
UPLC was used to determine the concentration of the compounds in the transport samples obtained from the Caco-2 model. The conditions for UPLC analysis of epimedin A, epimedin B, and epimedin C in the presence of inhibitors (verapamil or MK571) were as follows: system, Waters Acquity^TM UPLC with photodiode array detector and Empower software; column, Acquity UPLC BEH C18, 1.7 μm, 2.1 × 50 mm (Waters, Milford, MA, USA); mobile phase A, acetonitrile; mobile phase B, water; gradient, 0 to 0.5 min, 25% A, 0.5 to 1.0 min, 25% to 60% A, 1.0 to 2.5 min, 60% to 80% A, 2.5 to 3 min, 80% to 25% A; flow rate, 0.4 mL/min; wavelength, 270 nm (epimedin A, epimedin B and epimedin C), 283nm (MK571), 278 nm (verapamil) and 245 nm (testosterone); column temperature, 30 °C; and injection volume, 5 μL. […]

P-glycoprotein (P-gp) = molecular target: T1, P-glycoprotein (P-gp) (Homo sapiens, UniProt P08183); assay: Caco-2 transport in the presence of verapamil (P-gp inhibitor); format: in vitro ADME; conditions: 20 μM epimedin; for efflux ratio at 5 h, 20 µM: human
T1 construct: endogenous in cells; host or cells: Caco-2 TC7 cell monolayers
Procedure: (§3) Meanwhile, verapamil was dissolved in water to 2 mM as well as MK571 and dipyridamole were dissolved in dimethyl sulfoxide (DMSO)-ethanol (v/v = 1/1) to prepare the stock solution (10 mM) when they were used. In addition, testosterone (internal standard) was dissolved in acetonitrile with acetic acid (v/v = 94/6) to 100 µM.
as §1, §2
(§4) UPLC was used to determine the concentration of the compounds in the transport samples obtained from the Caco-2 model. The conditions for UPLC analysis of epimedin A, epimedin B, and epimedin C in the presence of inhibitors (verapamil or MK571) were as follows: system, Waters Acquity^TM UPLC with photodiode array detector and Empower software; column, Acquity UPLC BEH C18, 1.7 μm, 2.1 × 50 mm (Waters, Milford, MA, USA); mobile phase A, acetonitrile; mobile phase B, water; gradient, 0 to 0.5 min, 25% A, 0.5 to 1.0 min, 25% to 60% A, 1.0 to 2.5 min, 60% to 80% A, 2.5 to 3 min, 80% to 25% A; flow rate, 0.4 mL/min; wavelength, 270 nm (epimedin A, epimedin B and epimedin C), 283nm (MK571), 278 nm (verapamil) and 245 nm (testosterone); column temperature, 30 °C; and injection volume, 5 μL.
(§5) In the Caco-2 cell model, rate of transport is obtained from amount transported versus time curve using linear regression. […] The rate of drug transport was calculated by linear regression analysis using Microsoft Excel software (Microsoft Corporation, Redmond, WA, USA ). All data were presented as means ± SD. Statistical comparisons were evaluated by ANOVA test using the SPSS 16 software. Results were considered significant at p < 0.05.

[2] = molecular target: T2, breast cancer resistance protein (BCRP) (Homo sapiens, UniProt Q9UNQ0); assay: Caco-2 transport in the presence of dipyridamole (BCRP inhibitor); format: in vitro ADME; conditions: 20 μM epimedin
T2 construct: endogenous in cells; host or cells: Caco-2 TC7 cell monolayers
T2 sequence (Q9UNQ0 1-655): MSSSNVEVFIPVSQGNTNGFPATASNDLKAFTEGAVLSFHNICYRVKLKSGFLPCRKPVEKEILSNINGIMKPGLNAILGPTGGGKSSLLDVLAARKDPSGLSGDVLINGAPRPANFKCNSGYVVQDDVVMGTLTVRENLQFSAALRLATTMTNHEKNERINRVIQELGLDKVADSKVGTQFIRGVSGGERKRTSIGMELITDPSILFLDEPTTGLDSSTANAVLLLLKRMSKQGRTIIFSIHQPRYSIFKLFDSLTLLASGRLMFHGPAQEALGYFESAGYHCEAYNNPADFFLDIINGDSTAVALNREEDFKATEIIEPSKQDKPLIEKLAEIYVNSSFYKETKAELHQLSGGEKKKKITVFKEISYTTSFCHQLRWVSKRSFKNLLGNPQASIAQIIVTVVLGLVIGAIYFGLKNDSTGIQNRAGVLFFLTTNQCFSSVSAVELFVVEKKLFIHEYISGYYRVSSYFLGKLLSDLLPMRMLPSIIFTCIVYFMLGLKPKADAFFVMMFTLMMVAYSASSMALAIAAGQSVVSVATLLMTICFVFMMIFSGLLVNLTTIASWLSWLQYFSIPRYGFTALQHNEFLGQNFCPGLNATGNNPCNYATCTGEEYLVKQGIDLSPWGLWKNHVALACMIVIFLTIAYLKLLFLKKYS
Procedure: as §3, §1, §2
While analysis the samples in the presence of another inhibitor (dipyridamole), the conditions were as follows: system and column were the same as before; mobile phase A, 90% acetonitrile, 10%water; mobile phase B, 10% acetonitrile, 90% water containing 0.015% (v/v) formic acid and 0.02% (v/v) triethylamine (pH 3.0); gradient, 0–0.3 min, 95% B, 0.3–2.9 min, 95%–65% B, 3.8 min, 0% B, 3.8–4.5 min, 0%–95% B; flow rate, 0.4 mL/min; wavelength, 270 nm (epimedin A, epimedin B and epimedin C), 285 nm (dipyridamole) and 245 nm (testosterone,); column temperature, 30 °C; and injection volume, 5 μL.
as §5

[3] = system: multidrug resistance proteins (MRPs); assay: Caco-2 transport in the presence of MK571 (MRP inhibitor); format: in vitro ADME, human; conditions: 20 μM epimedin, 50 μM MK571
Procedure: as §3, §1, §2, §4, §5

T1 sequence (P08183 whole entry): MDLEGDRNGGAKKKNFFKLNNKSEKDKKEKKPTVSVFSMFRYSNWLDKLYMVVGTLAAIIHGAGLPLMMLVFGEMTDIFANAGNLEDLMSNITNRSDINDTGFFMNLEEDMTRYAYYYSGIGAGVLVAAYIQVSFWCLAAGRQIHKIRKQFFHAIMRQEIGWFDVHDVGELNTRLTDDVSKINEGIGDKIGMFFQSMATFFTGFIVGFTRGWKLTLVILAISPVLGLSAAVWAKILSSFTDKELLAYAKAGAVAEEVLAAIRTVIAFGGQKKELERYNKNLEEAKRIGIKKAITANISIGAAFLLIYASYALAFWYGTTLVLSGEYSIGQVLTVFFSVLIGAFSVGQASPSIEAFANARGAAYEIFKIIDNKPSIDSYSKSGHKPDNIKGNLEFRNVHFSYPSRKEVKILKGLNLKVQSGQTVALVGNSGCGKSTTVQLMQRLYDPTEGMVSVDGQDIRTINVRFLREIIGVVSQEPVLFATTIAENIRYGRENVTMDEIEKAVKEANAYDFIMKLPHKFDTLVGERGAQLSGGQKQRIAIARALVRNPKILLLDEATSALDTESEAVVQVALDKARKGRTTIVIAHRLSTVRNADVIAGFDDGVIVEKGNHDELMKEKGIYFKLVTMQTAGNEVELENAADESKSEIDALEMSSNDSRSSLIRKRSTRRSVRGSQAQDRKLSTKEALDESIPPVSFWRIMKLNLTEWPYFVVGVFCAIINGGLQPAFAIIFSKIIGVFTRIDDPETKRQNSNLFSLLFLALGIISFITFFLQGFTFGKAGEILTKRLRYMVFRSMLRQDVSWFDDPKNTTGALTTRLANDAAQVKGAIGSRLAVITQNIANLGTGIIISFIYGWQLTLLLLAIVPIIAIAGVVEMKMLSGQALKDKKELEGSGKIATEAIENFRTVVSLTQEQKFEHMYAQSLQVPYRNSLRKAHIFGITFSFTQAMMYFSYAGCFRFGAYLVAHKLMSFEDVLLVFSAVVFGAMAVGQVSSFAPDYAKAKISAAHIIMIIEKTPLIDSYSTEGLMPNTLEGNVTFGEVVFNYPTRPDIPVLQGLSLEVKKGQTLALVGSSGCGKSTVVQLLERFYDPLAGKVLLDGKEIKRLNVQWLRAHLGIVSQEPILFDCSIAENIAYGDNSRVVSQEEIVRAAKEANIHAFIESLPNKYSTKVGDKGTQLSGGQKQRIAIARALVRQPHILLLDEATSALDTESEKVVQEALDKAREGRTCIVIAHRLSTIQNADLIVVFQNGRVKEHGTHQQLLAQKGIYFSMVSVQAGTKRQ

O=C(O)c1cc(/N=N/c2ccc(S(=O)(=O)Nc3ccccn3)cc2)ccc1O [sulfasalazine]
permeability of poorly absorbed compound (Caco-2 cell monolayers): 0.34 × 10^−6

COc1ccc(-c2oc3c(CC=C(C)C)c(O[C@@H]4O[C@H](CO)[C@@H](O)[C@H](O)[C@H]4O)cc(O)c3c(=O)c2O[C@@H]2O[C@@H](C)[C@H](O)[C@@H](O)[C@H]2O[C@@H]2OC[C@@H](O)[C@H](O)[C@H]2O)cc1 [epimedin B]
reduction of cell viability rate of Caco-2 cells (Caco-2 cells): 7%
cytotoxicity to the growth of Caco-2 cells (Caco-2 cells): nontoxic
efflux ratio at 5 h, 20 µM [1]: 1.98
efflux ratio at 5 h [1]: > 2
Papp A→B at 5 h [1]: 0.39 to 0.73 ×10⁻⁶ cm/s
Papp B→A at 5 h [1]: 1.19 to 1.76 ×10⁻⁶ cm/s
effect on PAB and PBA (P-glycoprotein (P-gp); verapamil): increased
reduction of efflux ratio (P-glycoprotein (P-gp); verapamil): 31%
effect on absorptive permeability ([2]; 50 μM dipyridamole): increased significantly
effect on secretory permeability ([2]; 50 μM dipyridamole): significantly decreased
reduction of efflux ratio ([2]; 50 μM dipyridamole): 50%
efflux ratio at 5 h, 20 µM ([2]; human, Caco-2, pH 7.4, with dipyridamole 50 µM, 50 μM dipyridamole): 1.02
effect on PAB and PBA (transport) [3]: increased
reduction of efflux ratio [3]: 32%

COc1ccc(-c2oc3c(CC=C(C)C)c(O[C@@H]4O[C@H](CO)[C@@H](O)[C@H](O)[C@H]4O)cc(O)c3c(=O)c2O[C@@H]2O[C@@H](C)[C@H](O)[C@@H](O)[C@H]2O[C@@H]2O[C@@H](C)[C@H](O)[C@@H](O)[C@H]2O)cc1 [epimedin C]
reduction of cell viability rate of Caco-2 cells (Caco-2 cells): 7%
cytotoxicity to the growth of Caco-2 cells (Caco-2 cells): nontoxic
efflux ratio at 5 h [1]: > 2
Papp A→B at 5 h [1]: 0.42 to 0.72 ×10⁻⁶ cm/s
Papp B→A at 5 h [1]: 1.2 to 2.28 ×10⁻⁶ cm/s
increase in absorptive permeability (PAB) (P-glycoprotein (P-gp); 50 μM verapamil): 109%
reduction of PBA (P-glycoprotein (P-gp); 50 μM verapamil): 17%
efflux ratio at 5 h, 20 µM (P-glycoprotein (P-gp); Caco-2, pH 7.4, with verapamil (concentration not stated for this group), verapamil, read-out: reduction of efflux ratio): ~2.5
increase in absorptive permeability (PAB) ([2]; 50 μM dipyridamole): 43%
reduction of PBA ([2]; 50 μM dipyridamole): 27%
fold reduction of efflux ratio at 5 h, 20 µM ([2]; human, Caco-2, pH 7.4, with dipyridamole (concentration not stated for this group), dipyridamole): ~1.95
effect on PAB and PBA (transport) [3]: did not significantly influence

COc1ccc(-c2oc3c(CC=C(C)C)c(OC4O[C@H](CO)[C@@H](O)[C@H](O)[C@H]4O)cc(O)c3c(=O)c2OC2O[C@@H](C)[C@H](O)[C@@H](O)[C@H]2O[C@@H]2O[C@H](CO)[C@@H](O)[C@H](O)[C@H]2O)cc1 (stereo partly drawn) [epimedin A]
reduction of cell viability rate of Caco-2 cells (Caco-2 cells): 7%
cytotoxicity to the growth of Caco-2 cells (Caco-2 cells): nontoxic
efflux ratio at 5 h, 20 µM [1]: 2.04
efflux ratio at 5 h [1]: > 2
Papp A→B at 5 h [1]: 0.42 to 0.72 ×10⁻⁶ cm/s
Papp B→A at 5 h [1]: 1.29 to 1.89 ×10⁻⁶ cm/s
PAB relative to control group (P-glycoprotein (P-gp); 50 μM verapamil): 1.5 fold
reduction of PBA (P-glycoprotein (P-gp); 50 μM verapamil): 22%
efflux ratio at 5 h, 20 µM (P-glycoprotein (P-gp); Caco-2, pH 7.4, with verapamil 50 µM, 50 μM verapamil, read-out: efflux ratio in the presence of verapamil): 1.03
increase of PAB ([2]; 50 μM dipyridamole): 1.2 fold
reduction of PBA ([2]; 50 μM dipyridamole): 38%
reduction of efflux ratio ([2]; 50 μM dipyridamole): 47%
effect on PAB and PBA (transport) [3]: did not alter
reduction of efflux ratio [3]: 13%

OC[C@@H](O)[C@@H](O)[C@H](O)[C@H](O)CO [mannitol]
permeability of poorly absorbed compound (Caco-2 cell monolayers): 1.7e-06 cm/s
